≈ marks a conversion by molar mass, not a printed value.
How the values were obtained:
Type in all cases: cell-based
[1] = tested on: S. aureus Oxford; test: MIC against S. aureus Oxford; conditions: Staphylococcus aureus
Protocol: (§1) The MIC (μg/ml) of compounds 1 and 2 against various organisms was determined.

[2] = tested on: S. aureus WCUH29; test: MIC against S. aureus WCUH29; conditions: Staphylococcus aureus
Protocol: as §1

[3] = tested on: S. aureus Carter 37; test: MIC against S. aureus Carter 37; conditions: Staphylococcus aureus, CARTER37
Protocol: as §1

[4] = tested on: E. faecalis I; test: MIC against E. faecalis I; conditions: Enterococcus faecalis
Protocol: as §1

[5] = tested on: M. catarrhalis Ravasio; test: MIC against M. catarrhalis Ravasio; conditions: Moraxella catarrhalis
Protocol: as §1

[6] = tested on: S. pneumoniae R6; test: MIC against S. pneumoniae R6; conditions: Streptococcus pneumoniae
Protocol: as §1

[7] = tested on: some of these organisms; test: MIC against various organisms (unspecified subset); conditions: against some of these organisms (those of the table)
Protocol: as §1

Row | SMILES | MIC [1] | MIC [2] | MIC [3] | MIC [4] | MIC [5] | MIC [6] | MIC [7]
1 | C=C[C@H]1CN(CCCCCCC)CC[C@H]1CCN(C)c1ncnc2ccc(OC)cc12 [Example 1, [3R, 4S]-1-Heptyl-4-[N-methyl-N-(6-methoxy-quinazolin-4-yl)-2-aminoethyl]-3-ethenylpiperidine] | 0.5 µg/mL (≈ 1.18 µM) | 0.5 µg/mL (≈ 1.18 µM) | 0.5 µg/mL (≈ 1.18 µM) | 4 µg/mL (≈ 9.42 µM) | 0.5 µg/mL (≈ 1.18 µM) | 0.5 µg/mL (≈ 1.18 µM) | 
2 | C=C[C@H]1CN(CCCCCCC)CC[C@H]1CC(O)Cc1ccnc2ccc(OC)nc12 (mixture of isomers) [Example 5, [3R,4S]-1-Heptyl-3-ethenyl-4-[2-(R,S)-hydroxy-3-(6-methoxy-1,5-naphthyridin-4-yl)propyl]piperidine] |  |  |  |  |  |  | ≤ 1 µg/mL
3 | C=C[C@H]1CN(CCCCCCC)CC[C@H]1CCOc1ncnc2ccc(OC)cc12 [Example 2, [3R, 4S]-1-Heptyl-4-[2-(6-methoxyquinazolin4-oxy)ethyl]-3-ethenylpiperidine] | 4 µg/mL (≈ 9.72 µM) | 4 µg/mL (≈ 9.72 µM) | 4 µg/mL (≈ 9.72 µM) | 8 µg/mL (≈ 19.4 µM) | 4 µg/mL (≈ 9.72 µM) | 8 µg/mL (≈ 19.4 µM) | 
4 | CCCCCCCN1CCC(C(=O)Nc2ccnc3ccc(OC)nc23)CC1 [Example 3, 1-Heptyl-4-(6-methoxy-1,5-naphthyridin-4-yl)aminocarbonyl Piperidine] |  |  |  |  |  |  | ≤ 1 µg/mL
5 | CCCCCCCN1CC[C@@H](CC(=O)Nc2ccnc3ccc(OC)nc23)[C@@H](CC(N)=O)C1.O=C(O)C(=O)O [Example 6, [3R,4S]-1-Heptyl-4-N-(6-methoxy-1,5-naphthyridin-4-yl)-3,4-piperidinediacetamide Oxalate] |  |  |  |  |  |  | ≤ 1 µg/mL
